“And” between values parts separate entries of the source, which are not always exact repeats. Identical values can stand only once. Toxic doses and inconclusive results are not listed.
System: L1210 leukemia ip in BDF1 mice, survival T/C
Experiment: NCI In Vivo Anticancer Drug Screen. Data for tumor model L1210 Leukemia (intraperitoneal) in B6D2F1 (BDF1) mice
Settings: endpoint: mean survival time, higher = longer survival
Procedure, shortened: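 Each compound was tested against a transplantable tumor grown in mice. The endpoint was survival, with treated animals benchmarked against vehicle controls as a simple ratio.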

NC(Cc1c[nH]c2ccc(N(CCCl)CCCl)cc12)C(=O)O (stereo not given)
T/C (dose: 0.01 mg/kg/injection, schedule: Q#A X Z (ip), vehicle: acid diluted with saline): 124 % of control
T/C (dose: 0.02 mg/kg/injection, schedule: Q01DX010 (iv), vehicle: acid diluted with saline): 103 % of control
T/C (dose: 0.02 mg/kg/injection, schedule: Q01DX Z (ip), vehicle: acid diluted with saline): 108 % of control
T/C (dose: 0.02 mg/kg/injection, schedule: Q01DX Z (ip), vehicle: saline): 119 % of control
T/C (dose: 0.02 mg/kg/injection, schedule: Q01DX Z (sc), vehicle: acid diluted with saline): 114 % of control
T/C (dose: 0.05 mg/kg/injection, schedule: Q07DX Z (ip), vehicle: acid diluted with saline): 111 % of control
T/C (dose: 0.06 mg/kg/injection, schedule: Q01DX010 (iv), vehicle: acid diluted with saline): 108 % of control
T/C (dose: 0.06 mg/kg/injection, schedule: Q01DX Z (sc), vehicle: acid diluted with saline): 106 % of control
T/C (dose: 0.09 mg/kg/injection, schedule: Q#A X Z (ip), vehicle: acid diluted with saline): 167 % of control
T/C (dose: 0.1 mg/kg/injection, schedule: Q03DX Z (oral), vehicle: acid diluted with saline): 110 % of control
T/C (dose: 0.12 mg/kg/injection, schedule: Q01DX Z (oral), vehicle: acid diluted with saline): 102 % of control
T/C (dose: 0.12 mg/kg/injection, schedule: Q#A X Z (oral), vehicle: acid diluted with saline): 121 % of control
T/C (dose: 0.13 mg/kg/injection, schedule: Q01DX Z (ip), vehicle: saline): 169 % of control
T/C (dose: 0.13 mg/kg/injection, schedule: Q01DX Z (oral), vehicle: acid diluted with saline): 101 % of control
T/C (dose: 0.15 mg/kg/injection, schedule: Q01DX Z (oral), vehicle: saline): 96 % of control
T/C (dose: 0.16 mg/kg/injection, schedule: Q07DX Z (ip), vehicle: acid diluted with saline): 103 % of control
T/C (dose: 0.18 mg/kg/injection, schedule: Q01DX009 (ip), vehicle: saline): 115 % of control
T/C (dose: 0.18 mg/kg/injection, schedule: Q01DX Z (sc), vehicle: acid diluted with saline): 120 % of control
T/C (dose: 0.19 mg/kg/injection, schedule: Q03DX Z (oral), vehicle: acid diluted with saline): 114 % of control
T/C (dose: 0.26 mg/kg/injection, schedule: Q01DX Z (ip), vehicle: saline): 153 % of control and 157 % of control
T/C (dose: 0.27 mg/kg/injection, schedule: Q#A X Z (ip), vehicle: acid diluted with saline): 97 % of control
T/C (dose: 0.3 mg/kg/injection, schedule: Q01DX Z (oral), vehicle: saline): 100 % of control
T/C (dose: 0.38 mg/kg/injection, schedule: Q03DX Z (oral), vehicle: acid diluted with saline): 112 % of control
T/C (dose: 0.39 mg/kg/injection, schedule: Q01DX Z (ip), vehicle: saline): 166 % of control
T/C (dose: 0.5 mg/kg/injection, schedule: Q03DX Z (oral), vehicle: acid diluted with saline): 120 % of control
T/C (dose: 0.5 mg/kg/injection, schedule: Q#A X Z (oral), vehicle: acid diluted with saline): 107 % of control
T/C (dose: 0.54 mg/kg/injection, schedule: Q01DX Z (ip), vehicle: acid diluted with saline): 198 % of control
T/C (dose: 0.54 mg/kg/injection, schedule: Q01DX Z (sc), vehicle: acid diluted with saline): 160 % of control
T/C (dose: 0.58 mg/kg/injection, schedule: Q01DX Z (ip), vehicle: saline): 190 % of control
T/C (dose: 0.6 mg/kg/injection, schedule: Q01DX Z (oral), vehicle: saline): 101 % of control
T/C (dose: 0.75 mg/kg/injection, schedule: Q01DX009 (ip), vehicle: saline): 176 % of control
T/C (dose: 0.75 mg/kg/injection, schedule: Q03DX Z (oral), vehicle: acid diluted with saline): 114 % of control
T/C (dose: 0.87 mg/kg/injection, schedule: Q01DX Z (ip), vehicle: saline): 211 % of control
T/C (dose: 0.9 mg/kg/injection, schedule: Q07DX Z (oral), vehicle: acid diluted with saline): 114 % of control
T/C (dose: 1.0 mg/kg/injection, schedule: Q01DX (oral), vehicle: acid diluted with saline): 189 % of control
T/C (dose: 1.0 mg/kg/injection, schedule: Q03DX Z (oral), vehicle: acid diluted with saline): 117 % of control
T/C (dose: 1.2 mg/kg/injection, schedule: Q01DX Z (oral), vehicle: saline): 115 % of control
T/C (dose: 1.3 mg/kg/injection, schedule: Q07DX003 (ip), vehicle: acid diluted with saline): 155 % of control
T/C (dose: 1.5 mg/kg/injection, schedule: Q01DX009 (ip), vehicle: saline): 160 % of control and 260 % of control
T/C (dose: 1.5 mg/kg/injection, schedule: Q03DX (oral), vehicle: acid diluted with saline): 117 % of control
T/C (dose: 1.5 mg/kg/injection, schedule: Q03DX Z (oral), vehicle: acid diluted with saline): 183 % of control
T/C (dose: 1.6 mg/kg/injection, schedule: Q01DX Z (sc), vehicle: acid diluted with saline): 103 % of control
T/C (dose: 1.75 mg/kg/injection, schedule: Q01DX 1 (oral), vehicle: acid diluted with saline): 102 % of control and 107 % of control
T/C (dose: 1.75 mg/kg/injection, schedule: Q07DX (oral), vehicle: acid diluted with saline): 112 % of control
T/C (dose: 1.8 mg/kg/injection, schedule: Q07DX Z (oral), vehicle: acid diluted with saline): 117 % of control

Source: PubChem BioAssay AID248 (DTP/NCI, 2004)
